PMC8658889, “Seriniquinones as Therapeutic Leads for Treatment of BRAF and NRAS Mutant Melanomas” (Molecules, 2021)

Tests used:
Test in all cases: MTT cytotoxicity assay
MRC-5 = MRC-5 non-tumor fibroblasts, 72 h treatment, MTT
MCF7 = type: cell-based, Human; conditions: for IC50: Homo sapiens, MCF7, 72 h treatment, MTT
Source text: (§1) Human cell lines were used throughout this program. SK-MEL-19 (melanoma BRAF^V600E, NRAS^WT), SK-MEL-28 (melanoma BRAF^V600E, NRAS^WT), SK-MEL-147 (melanoma BRAF^WT, NRAS^Q61R), MRC-5 (fibroblasts), and primary fibroblast (FDH) were kindly provided by Professor Glaucia Santelli (University of São Paulo, Brazil). MCF7 (breast adenocarcinoma, ATCC HTB-22), and HCT-116 (colorectal carcinoma, ATCC 247) cells were obtained from American Type Culture Collection (ATCC) and deposited in the Cell Bank of Rio de Janeiro, Brazil. WM293A (metastatic melanoma BRAF^V600D, NRAS^WT), 501mel (metastatic melanoma BRAF^V600E; NRAS^G12D), and MM200 (melanoma BRAF^V600E, NRAS^WT) were kindly provided by Professor Sharon Prince, University of Cape Town, South Africa. All human melanoma and breast cell lines were cultivated with Dulbecco’s Modified Eagle Medium: Nutrient Mixture F-12 (Thermo Fisher Scientific, San Jose, CA, USA). MM200 and HCT-116 were maintained with Roswell Park Memorial Institute (RPMI) medium (Thermo Fisher Scientific, San Jose, CA, USA). Unless stated otherwise, media was supplemented with 10% fetal bovine serum (FBS) and 1% penicillin-streptomycin (Thermo Fisher Scientific, San Jose, CA, USA). Cells were incubated with 5% CO2 at 37 °C. When required, cells were detached from flask using trypsin-EDTA 0.05% (Thermo Fisher Scientific, San Jose, CA, USA).
(§2) Cytotoxic activity was evaluated by the transformation of 3-(4,5-dimethylthiazol-2-yl)-2,5-diphenyltetrazolium bromide (MTT; Thermo Fisher Scientific, San Jose, CA, USA) into formazan by viable cells. Cells were plated in a 96-well plate (1 × 10^4 cells/well) and, 24 h later, exposed to serial dilutions of the test compounds (from 0.00032 to 5.0 µM) for 24, 48, and 72 h. For each analysis, negative controls received 0.5% DMSO and positive control was delivered by doxorubicin (DOX; 0.05 to 10.0 µM). At the end of the incubation periods, the medium was replaced with fresh medium containing 0.5 mg/mL of MTT and supernatant was removed 3 h later. The plates were dried at 50 °C for 30 min and formazan was solubilized in DMSO (150 µL/well) for the absorbance measure at 570 nm on a plate reader (Thermo Fisher Scientific, San Jose, CA, USA). IC50 values (half-maximal inhibitory concentration) along with 95% CI (confidence intervals) were calculated by non-linear regression using GraphPad Prism 8.0 software (GraphPad Software, Inc., San Diego, CA, USA).

MM200 = type: cell-based, Human; conditions: for IC50: MM200, 72 h treatment, MTT
Source text: as §1, §2

SK-MEL-19 = type: cell-based, Human; conditions: for IC50: Homo sapiens, SK-MEL19, SK-MEL-19, 72 h treatment, MTT
Source text: as §1, §2

SK-MEL-147 = type: cell-based, Human; conditions: for IC50: Homo sapiens
Source text: as §1, §2

501mel = type: cell-based, Human; conditions: for IC50: Homo sapiens, 501mel, 72 h treatment, MTT
Source text: as §1, §2

WM293A = type: cell-based, Human; conditions: for IC50: Homo sapiens, WM293A, 72 h treatment, MTT
Source text: as §1, §2

FDH = type: cell-based, Human; conditions: FDH primary fibroblasts, 72 h treatment
Source text: as §1, §2

SK-MEL-28 = type: cell-based, Human; conditions: for IC50: Homo sapiens
Source text: as §1, §2

HCT-116 = type: cell-based, Human; conditions: for IC50: Homo sapiens, HCT-116, 72 h treatment, MTT
Source text: as §1, §2

[1] = MCF7 versus FDH, 72-h IC50 ratio
[2] = MCF7 versus MRC-5, 72-h IC50 ratio
[3] = MM200 versus FDH, 72-h IC50 ratio
[4] = MM200 versus MRC-5, 72-h IC50 ratio
[5] = SK-MEL-19 versus FDH, 72-h IC50 ratio
[6] = SK-MEL-19 versus MRC-5, 72-h IC50 ratio
[7] = SK-MEL-147, 24 h, SK-MEL-147, 24h treatment, MTT
[8] = SK-MEL-147, 48 h, SK-MEL-147, 48h treatment, MTT
[9] = SK-MEL-147, 72 h, SK-MEL-147, 72 h treatment, MTT
[10] = SK-MEL-147, SK-MEL-147, 24h treatment, 1h pre-treated with 30 nM bafilomycin A1
[11] = SK-MEL-147, SK-MEL-147, 24h treatment, 1h pre-treated with 20 µM Z-VAD-FMK
[12] = SK-MEL-147, SK-MEL-147, 24h treatment, no pre-treatment (Table S4)
[13] = SK-MEL-147 versus FDH, 72-h IC50 ratio
[14] = SK-MEL-147 versus MRC-5, 72-h IC50 ratio
[15] = 501mel versus FDH, 72-h IC50 ratio
[16] = 501mel versus MRC-5, 72-h IC50 ratio
[17] = WM293A versus FDH, 72-h IC50 ratio
[18] = WM293A versus MRC-5, 72-h IC50 ratio
[19] = SK-MEL-28, 24 h, SK-MEL-28, 24h treatment, MTT
[20] = SK-MEL-28, 48 h, SK-MEL-28, 48h treatment, MTT
[21] = SK-MEL-28, 72 h, SK-MEL-28, 72 h treatment, MTT
[22] = SK-MEL-28, SK-MEL-28, 24h treatment, 1h pre-treated with 30 nM bafilomycin A1
[23] = SK-MEL-28, SK-MEL-28, 24h treatment, 1h pre-treated with 20 µM Z-VAD-FMK
[24] = SK-MEL-28, SK-MEL-28, 24h treatment, no pre-treatment (Table S4)
[25] = SK-MEL-28 versus FDH, 72-h IC50 ratio
[26] = SK-MEL-28 versus MRC-5, 72-h IC50 ratio
[27] = HCT-116 versus FDH, 72-h IC50 ratio
[28] = HCT-116 versus MRC-5, 72-h IC50 ratio

Structure (SMILES): O=c1c2ccccc2c(=O)c2c1sc1c(=O)c3ccccc3c(=O)c12 [SQ1, seriniquinone]
- IC50 (MRC-5; Homo sapiens, MRC5, 72 h): 640 nM
- IC50 (MRC-5): 600 nM
- IC50 (MCF7): 3300 nM
- Selectivity Index (SI) (MCF7; [1]): 0.3
- Selectivity Index (SI) (MCF7; [2]): 0.2
- IC50 (MM200; Homo sapiens, 72 h): 1360 nM
- IC50 (MM200): 1400 nM
- Selectivity Index (SI) (MM200; [3]): 0.8
- Selectivity Index (SI) (MM200; [4]): 0.5
- IC50 (SK-MEL-19): 60 nM
- Selectivity Index (SI) (SK-MEL-19; [5]): 19.2
- Selectivity Index (SI) (SK-MEL-19; [6]): 10.7
- IC50 (SK-MEL-147; [7]): 1790 nM
- IC50 (SK-MEL-147; [8]): 1610 nM
- IC50 (SK-MEL-147; [9]): 130 nM
- IC50 (SK-MEL-147; [10]): 2260 nM
- IC50 (SK-MEL-147; [11]): 1890 nM
- IC50 (SK-MEL-147; [12]): 1640 nM
- Selectivity Index (SI) (SK-MEL-147; [13]): 8.8
- Selectivity Index (SI) (SK-MEL-147; [14]): 4.9
- Selectivity Index (SI) (501mel; [15]): 3.6
- Selectivity Index (SI) (501mel; [16]): 2.0
- IC50 (501mel): 320 nM
- IC50 (WM293A): 1050 nM
- Selectivity Index (SI) (WM293A; [17]): 1.1
- Selectivity Index (SI) (WM293A; [18]): 0.6
- IC50 (FDH): 1200 nM
- IC50 (FDH; Homo sapiens, Fibroblast, 72 h): 1150 nM
- IC50 (SK-MEL-28; [19]): 560 nM
- IC50 (SK-MEL-28; [20]): 690 nM
- IC50 (SK-MEL-28; [21]): 150 nM
- IC50 (SK-MEL-28; [22]): 140 nM
- IC50 (SK-MEL-28; [23]): 700 nM
- IC50 (SK-MEL-28; [24]): 350 nM
- Selectivity Index (SI) (SK-MEL-28; [25]): 7.7
- Selectivity Index (SI) (SK-MEL-28; [26]): 4.3
- Selectivity Index (SI) (HCT-116; [27]): 1.1
- Selectivity Index (SI) (HCT-116; [28]): 0.6
- IC50 (HCT-116): 1000 nM

Structure (SMILES): CC(C)(O)C(O)CCc1ccc2c(=O)c3sc4c(=O)c5ccccc5c(=O)c4c3c(=O)c2c1 (stereo not drawn) [SQ2]
- IC50 (MRC-5; Homo sapiens, MRC5, 72 h): 1570 nM
- IC50 (MCF7): 730 nM
- Selectivity Index (SI) (MCF7; [1]): 1.6
- Selectivity Index (SI) (MCF7; [2]): 2.2
- IC50 (MM200; Homo sapiens, 72 h): 750 nM
- Selectivity Index (SI) (MM200; [3]): 1.6
- Selectivity Index (SI) (MM200; [4]): 2.1
- IC50 (SK-MEL-19): 40 nM
- Selectivity Index (SI) (SK-MEL-19; [5]): 29.3
- Selectivity Index (SI) (SK-MEL-19; [6]): 39.3
- IC50 (SK-MEL-147; [7]): 1260 nM
- IC50 (SK-MEL-147; [8]): 890 nM
- IC50 (SK-MEL-147; [9]): 100 nM
- IC50 (SK-MEL-147; [10]): 1180 nM
- IC50 (SK-MEL-147; [11]): 1280 nM
- IC50 (SK-MEL-147; [12]): 910 nM
- Selectivity Index (SI) (SK-MEL-147; [13]): 11.7
- Selectivity Index (SI) (SK-MEL-147; [14]): 15.7
- Selectivity Index (SI) (501mel; [15]): 10.6
- Selectivity Index (SI) (501mel; [16]): 14.3
- IC50 (501mel): 110 nM
- IC50 (WM293A): 740 nM
- Selectivity Index (SI) (WM293A; [17]): 1.6
- Selectivity Index (SI) (WM293A; [18]): 2.1
- IC50 (FDH; Homo sapiens, Fibroblast, 72 h): 1170 nM
- IC50 (SK-MEL-28; [19]): 140 nM
- IC50 (SK-MEL-28; [20]): 260 nM
- IC50 (SK-MEL-28; [21]): 40 nM
- IC50 (SK-MEL-28; [22]): 60 nM
- IC50 (SK-MEL-28; [23]): 370 nM
- IC50 (SK-MEL-28; [24]): 240 nM
- Selectivity Index (SI) (SK-MEL-28; [25]): 29.3
- Selectivity Index (SI) (SK-MEL-28; [26]): 39.3
- Selectivity Index (SI) (HCT-116; [27]): 5.1
- Selectivity Index (SI) (HCT-116; [28]): 6.8
- IC50 (HCT-116): 230 nM
